In ChEMBL document CHEMBL1240371, “Randomized, double-blind study of the safety, tolerability, and efficacy of tafenoquine versus mefloquine for malaria prophylaxis in nonimmune subjects” (Antimicrob Agents Chemother, 2010):

Experiments:
Details in all cases: in vivo, po
[1] = species: Homo sapiens; test: Toxicity in […] assessed as incidence of increase in bilirubin at 200 mg, perorally for 3 days and weekly 200 mg, perorally maintenance dose for 26 +/- 4 weeks; assay type: organism-based
[2] = species: Homo sapiens; test: Toxicity in […] assessed as incidence of insomnia at 200 mg, perorally for 3 days and weekly 200 mg, perorally maintenance dose for 26 +/- 4 weeks; assay type: organism-based
[3] = species: Homo sapiens; test: Toxicity in […] assessed as incidence of phayngitis at 200 mg, perorally for 3 days and weekly 200 mg, perorally maintenance dose for 26 +/- 4 weeks; assay type: organism-based
[4] = species: Homo sapiens; test: Toxicity in […] assessed as incidence of paroniria at 200 mg, perorally for 3 days and weekly 200 mg, perorally maintenance dose for 26 +/- 4 weeks; assay type: organism-based
[5] = species: Homo sapiens; test: Toxicity in […] assessed as incidence of viral infection at 200 mg, perorally for 3 days and weekly 200 mg, perorally maintenance dose for 26 +/- 4 weeks; assay type: organism-based
[6] = species: Homo sapiens; test: Toxicity in […] assessed as incidence of abnormal dreams at 200 mg, perorally for 3 days and weekly 200 mg, perorally maintenance dose for 26 +/- 4 weeks; assay type: organism-based
[7] = species: Homo sapiens; test: Toxicity in […] assessed as incidence of somnolence at 200 mg, perorally for 3 days and weekly 200 mg, perorally maintenance dose for 26 +/- 4 weeks; assay type: organism-based
[8] = species: Homo sapiens; test: Toxicity in […] assessed as incidence of tremor at 200 mg, perorally for 3 days and weekly 200 mg, perorally maintenance dose for 26 +/- 4 weeks; assay type: organism-based
[9] = species: Homo sapiens; test: Toxicity in […] assessed as incidence of abnormal coordination at 200 mg, perorally for 3 days and weekly 200 mg, perorally maintenance dose for 26 +/- 4 weeks; assay type: organism-based
[10] = species: Homo sapiens; test: Toxicity in […] assessed as incidence of dizziness at 200 mg, perorally for 3 days and weekly 200 mg, perorally maintenance dose for 26 +/- 4 weeks; assay type: organism-based
[11] = species: Homo sapiens; test: Toxicity in […] assessed as incidence of amnesia at 200 mg, perorally for 3 days and weekly 200 mg, perorally maintenance dose for 26 +/- 4 weeks; assay type: organism-based
[12] = species: Homo sapiens; test: Toxicity in […] assessed as incidence of decrease in hematocrit at 200 mg, perorally for 3 days and weekly 200 mg, perorally maintenance dose for 26 +/- 4 weeks; assay type: organism-based; design: scale not given: the % may be the effect or the level left
[13] = species: Homo sapiens; test: Toxicity in […] assessed as incidence of euphoria at 200 mg, perorally for 3 days and weekly 200 mg, perorally maintenance dose for 26 +/- 4 weeks; assay type: organism-based
[14] = species: Homo sapiens; test: Toxicity in […] assessed as incidence of depression at 200 mg, perorally for 3 days and weekly 200 mg, perorally maintenance dose for 26 +/- 4 weeks; assay type: organism-based
[15] = species: Homo sapiens; test: Toxicity in […] assessed as incidence of vertigo at 200 mg, perorally for 3 days and weekly 200 mg, perorally maintenance dose for 26 +/- 4 weeks; assay type: organism-based
[16] = species: Homo sapiens; test: Toxicity in […] assessed as incidence of vortex keratopathy at 200 mg, perorally for 3 days and weekly 200 mg, perorally maintenance dose for 26 +/- 4 weeks; assay type: organism-based
[17] = species: Homo sapiens; test: Toxicity in […] assessed as incidence of abdominal pain at 200 mg, perorally for 3 days and weekly 200 mg, perorally maintenance dose for 26 +/- 4 weeks; assay type: organism-based, Abdomen
[18] = species: Homo sapiens; test: Toxicity in […] assessed as incidence of pigmentation of retinal epithelium at 200 mg, perorally for 3 days and weekly 200 mg, perorally maintenance dose for 26 +/- 4 weeks; assay type: organism-based
[19] = species: Homo sapiens; test: Toxicity in […] assessed as incidence of rash at 200 mg, perorally for 3 days and weekly 200 mg, perorally maintenance dose for 26 +/- 4 weeks; assay type: organism-based
[20] = species: Homo sapiens; test: Toxicity in […] assessed as incidence of anxiety at 200 mg, perorally for 3 days and weekly 200 mg, perorally maintenance dose for 26 +/- 4 weeks; assay type: organism-based
[21] = species: Homo sapiens; test: Toxicity in […] assessed as incidence of vomiting at 200 mg, perorally for 3 days and weekly 200 mg, perorally maintenance dose for 26 +/- 4 weeks; assay type: organism-based
[22] = species: Homo sapiens; test: Toxicity in […] assessed as incidence of headache at 200 mg, perorally for 3 days and weekly 200 mg, perorally maintenance dose for 26 +/- 4 weeks; assay type: organism-based
[23] = species: Homo sapiens; test: Toxicity in […] assessed as incidence of decrease in hematocrit at 250 mg, perorally for 3 days and weekly 250 mg, perorally maintenance dose for 26 +/- 4 weeks relative to baseline; assay type: organism-based; design: scale not given: the % may be the effect or the level left
[24] = species: Homo sapiens; test: Toxicity in […] assessed as incidence of nausea at 200 mg, perorally for 3 days and weekly 200 mg, perorally maintenance dose for 26 +/- 4 weeks; assay type: organism-based
[25] = species: Homo sapiens; test: Toxicity in […] assessed as incidence of agitation at 200 mg, perorally for 3 days and weekly 200 mg, perorally maintenance dose for 26 +/- 4 weeks; assay type: organism-based
[26] = species: Homo sapiens; test: Toxicity in […] assessed as incidence of fungal dermatitis at 200 mg, perorally for 3 days and weekly 200 mg, perorally maintenance dose for 26 +/- 4 weeks; assay type: organism-based
[27] = species: Homo sapiens; test: Toxicity in […] assessed as incidence of arthralgia at 200 mg, perorally for 3 days and weekly 200 mg, perorally maintenance dose for 26 +/- 4 weeks; assay type: organism-based
[28] = species: Homo sapiens; test: Toxicity in […] assessed as incidence of diarrhea at 200 mg, perorally for 3 days and weekly 200 mg, perorally maintenance dose for 26 +/- 4 weeks; assay type: organism-based
[29] = species: Homo sapiens; test: Toxicity in […] assessed as incidence of back pain at 200 mg, perorally for 3 days and weekly 200 mg, perorally maintenance dose for 26 +/- 4 weeks; assay type: organism-based
[30] = species: Homo sapiens; test: Toxicity in […] assessed as incidence of abnormal retinal fluorescein at 200 mg, perorally for 3 days and weekly 200 mg, perorally maintenance dose for 26 +/- 4 weeks; assay type: organism-based
[31] = species: Homo sapiens; test: Toxicity in […] assessed as incidence of increase in serum creatinine at 200 mg, perorally for 3 days and weekly 200 mg, perorally maintenance dose for 26 +/- 4 weeks; assay type: organism-based
[32] = species: Homo sapiens; test: Toxicity in […] assessed as incidence of diarrhea at 250 mg, perorally for 3 days and weekly 250 mg, perorally maintenance dose for 26 +/- 4 weeks; assay type: organism-based
[33] = species: Homo sapiens; test: Toxicity in […] assessed as incidence of upper respiratory tract infection at 250 mg, perorally for 3 days and weekly 250 mg, perorally maintenance dose for 26 +/- 4 weeks; assay type: organism-based
[34] = species: Homo sapiens; test: Toxicity in […] assessed as incidence of vomiting at 250 mg, perorally for 3 days and weekly 250 mg, perorally maintenance dose for 26 +/- 4 weeks; assay type: organism-based
[35] = species: Homo sapiens; test: Toxicity in […] assessed as incidence of increase in serum creatinine at 250 mg, perorally for 3 days and weekly 250 mg, perorally maintenance dose for 26 +/- 4 weeks; assay type: organism-based
[36] = species: Homo sapiens; test: Toxicity in […] assessed as incidence of rash at 250 mg, perorally for 3 days and weekly 250 mg, perorally maintenance dose for 26 +/- 4 weeks; assay type: organism-based
[37] = species: Homo sapiens; test: Toxicity in […] assessed as incidence of back pain at 250 mg, perorally for 3 days and weekly 250 mg, perorally maintenance dose for 26 +/- 4 weeks; assay type: organism-based
[38] = species: Homo sapiens; test: Toxicity in […] assessed as incidence of nausea at 250 mg, perorally for 3 days and weekly 250 mg, perorally maintenance dose for 26 +/- 4 weeks; assay type: organism-based
[39] = species: Homo sapiens; test: Toxicity in […] assessed as incidence of increase in bilirubin at 250 mg, perorally for 3 days and weekly 250 mg, perorally maintenance dose for 26 +/- 4 weeks; assay type: organism-based
[40] = species: Homo sapiens; test: Toxicity in […] assessed as incidence of abnormal coordination at 250 mg, perorally for 3 days and weekly 250 mg, perorally maintenance dose for 26 +/- 4 weeks; assay type: organism-based
[41] = species: Homo sapiens; test: Toxicity in […] assessed as incidence of pigmentation of retinal epithelium at 250 mg, perorally for 3 days and weekly 250 mg, perorally maintenance dose for 26 +/- 4 weeks; assay type: organism-based
[42] = species: Homo sapiens; test: Toxicity in […] assessed as incidence of vertigo at 250 mg, perorally for 3 days and weekly 250 mg, perorally maintenance dose for 26 +/- 4 weeks; assay type: organism-based
[43] = species: Homo sapiens; test: Toxicity in […] assessed as incidence of headache at 250 mg, perorally for 3 days and weekly 250 mg, perorally maintenance dose for 26 +/- 4 weeks; assay type: organism-based
[44] = species: Homo sapiens; test: Toxicity in […] assessed as incidence of viral infection at 250 mg, perorally for 3 days and weekly 250 mg, perorally maintenance dose for 26 +/- 4 weeks; assay type: organism-based
[45] = species: Homo sapiens; test: Toxicity in […] assessed as incidence of arthralgia at 250 mg, perorally for 3 days and weekly 250 mg, perorally maintenance dose for 26 +/- 4 weeks; assay type: organism-based
[46] = species: Homo sapiens; test: Toxicity in […] assessed as incidence of fungal dermatitis at 250 mg, perorally for 3 days and weekly 250 mg, perorally maintenance dose for 26 +/- 4 weeks; assay type: organism-based
[47] = species: Homo sapiens; test: Toxicity in […] assessed as incidence of depression at 250 mg, perorally for 3 days and weekly 250 mg, perorally maintenance dose for 26 +/- 4 weeks; assay type: organism-based
[48] = species: Homo sapiens; test: Toxicity in […] assessed as incidence of somnolence at 250 mg, perorally for 3 days and weekly 250 mg, perorally maintenance dose for 26 +/- 4 weeks; assay type: organism-based
[49] = species: Homo sapiens; test: Toxicity in […] assessed as incidence of gastroentertis at 250 mg, perorally for 3 days and weekly 250 mg, perorally maintenance dose for 26 +/- 4 weeks; assay type: organism-based
[50] = species: Homo sapiens; test: Toxicity in […] assessed as incidence of musculoskeletal injury at 250 mg, perorally for 3 days and weekly 250 mg, perorally maintenance dose for 26 +/- 4 weeks; assay type: organism-based
[51] = species: Homo sapiens; test: Toxicity in […] assessed as incidence of phayngitis at 250 mg, perorally for 3 days and weekly 250 mg, perorally maintenance dose for 26 +/- 4 weeks; assay type: organism-based
[52] = species: Homo sapiens; test: Toxicity in […] assessed as incidence of abnormal dreams at 250 mg, perorally for 3 days and weekly 250 mg, perorally maintenance dose for 26 +/- 4 weeks; assay type: organism-based
[53] = species: Homo sapiens; test: Toxicity in […] assessed as incidence of insomnia at 250 mg, perorally for 3 days and weekly 250 mg, perorally maintenance dose for 26 +/- 4 weeks; assay type: organism-based
[54] = species: Homo sapiens; test: Toxicity in […] assessed as incidence of dizziness at 250 mg, perorally for 3 days and weekly 250 mg, perorally maintenance dose for 26 +/- 4 weeks; assay type: organism-based
[55] = species: Homo sapiens; test: Toxicity in […] assessed as incidence of abnormal retinal fluorescein at 250 mg, perorally for 3 days and weekly 250 mg, perorally maintenance dose for 26 +/- 4 weeks; assay type: organism-based
[56] = species: Homo sapiens; test: Toxicity in […] assessed as incidence of abdominal pain at 250 mg, perorally for 3 days and weekly 250 mg, perorally maintenance dose for 26 +/- 4 weeks; assay type: organism-based, Abdomen

## COc1cc(C)c2c(Oc3cccc(C(F)(F)F)c3)c(OC)cc(NC(C)CCCN)c2n1 (stereo unspecified) [TAFENOQUINE]
[1]
  Activity: 2.6%
[2]
  Activity: 5%
[3]
  Activity: 25%
[4]
  Activity: 1%
[5]
  Activity: 39%
[6]
  Activity: 7%
[7]
  Activity: 12%
[8]
  Activity: 2%
[9]
  Activity: 2%
[10]
  Activity: 5%
[11]
  Activity: 1%
[12]
  Activity: 20%
[13]
  Activity: 2%
[14]
  Activity: 1%
[15]
  Activity: 22%
[16]
  Activity: 93.2%
[17]
  Activity: 24%
[18]
  Activity: 39.1%
[19]
  Activity: 70%
[20]
  Activity: 2%
[21]
  Activity: 21%
[22]
  Activity: 61%
[23]
  Activity: 15%
[24]
  Activity: 28%
[25]
  Activity: 2%
[26]
  Activity: 44%
[27]
  Activity: 55%
[28]
  Activity: 77%
[29]
  Activity: 74%
[30]
  Activity: 28.6%
[31]
  Activity: 19%

## OC(c1cc(C(F)(F)F)nc2c(C(F)(F)F)cccc12)C1CCCCN1 (stereo unspecified) [MEFLOQUINE]
[32]
  Activity: 30%
[33]
  Activity: 32%
[34]
  Activity: 8%
[35]
  Activity: 10%
[36]
  Activity: 21%
[37]
  Activity: 26%
[38]
  Activity: 13%
[39]
  Activity: 0.6%
[40]
  Activity: 1%
[41]
  Activity: 23.5%
[42]
  Activity: 8%
[43]
  Activity: 20%
[44]
  Activity: 13%
[45]
  Activity: 18%
[46]
  Activity: 8%
[47]
  Activity: 1%
[48]
  Activity: 6%
[49]
  Activity: 51%
[50]
  Activity: 49%
[51]
  Activity: 3%
[52]
  Activity: 2%
[53]
  Activity: 3%
[54]
  Activity: 2%
[55]
  Activity: 100%
[56]
  Activity: 13%
